Source: PubChem BioAssay (NCI)
Values joined by “and” are separate entries in the source; they are usually repeats but may differ in a detail not shown here. Equal entries are not always repeated.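 Dose response: 5 concentrations. Exposure: 48 h. Format: 96-well plates. Endpoint: linear interpolation; highest concentration if not reached. Abbreviation: GI50, concentration required for 50% inhibition of growth. TGI: concentration producing complete growth inhibition.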

What was measured:
Assay in all cases: NCI-60 cell line screen, 48 h
SNB-19 CNS = tested on: SNB-19 CNS
U251 CNS = tested on: U251 CNS
SF-295 CNS = tested on: SF-295 CNS
HL-60(TB) leukemia = tested on: HL-60(TB) leukemia
786-0 renal = tested on: 786-0 renal
OVCAR-5 ovarian = tested on: OVCAR-5 ovarian
LOX IMVI melanoma = tested on: LOX IMVI melanoma
NCI-H460 lung = tested on: NCI-H460 lung
HOP-92 NSCLC = tested on: HOP-92 NSCLC
UACC-62 melanoma = tested on: UACC-62 melanoma

SMILES	GI50 (SNB-19 CNS)	TGI (SNB-19 CNS)	GI50 (U251 CNS)	TGI (U251 CNS)	GI50 (SF-295 CNS)	TGI (SF-295 CNS)	GI50 (HL-60(TB) leukemia)	TGI (HL-60(TB) leukemia)	GI50 (786-0 renal)	TGI (786-0 renal)	GI50 (OVCAR-5 ovarian)	TGI (OVCAR-5 ovarian)	GI50 (LOX IMVI melanoma)	TGI (LOX IMVI melanoma)	GI50 (NCI-H460 lung)	TGI (NCI-H460 lung)	GI50 (HOP-92 NSCLC)	TGI (HOP-92 NSCLC)	GI50 (UACC-62 melanoma)	TGI (UACC-62 melanoma)
CO[C@@H]1CCN(c2nccc(Nc3cc4c(C(C)C)ccc(N5CC(CS(C)(=O)=O)[C@H]5C)c4cn3)n2)C[C@@H]1F (stereo partly specified)	5.19 µM	> 100 µM	4.31 µM	> 100 µM	3.15 µM	10.1 µM	3.06 µM	> 100 µM	7.18 µM	> 100 µM	6.36 µM	> 100 µM	4.34 µM	16.8 µM	3.51 µM	20.5 µM	10.6 µM	> 100 µM		
CCOC(=O)Nc1nc2ccccc2[nH]1	10.5 µM and 4.83 µM	> 100 µM	5.2 µM and 4.48 µM	> 100 µM	4.32 µM and 5.57 µM	> 100 µM	2.64 µM and 2.02 µM	6.64 µM and > 20.1 µM	7.37 µM	> 100 µM	15.8 µM and > 26.1 µM	> 100 µM	7.1 µM and 6.82 µM	> 100 µM	4.27 µM and 3.6 µM	> 100 µM	> 100 µM	> 100 µM	5.38 µM and 4.46 µM	> 100 µM
[N-]=[N+]=NCCCn1c2c(c3ccc([N+](=O)[O-])cc3c1=O)C(=O)c1cc3c(cc1-2)OCO3		> 100 µM	< 0.0174 µM	1.04 µM	< 0.012 µM	< 0.0428 µM	< 0.0281 µM	> 100 µM	< 0.0141 µM	< 0.025 µM	0.215 µM	2.1 µM	< 0.01 µM	1.02 µM	< 0.01 µM	0.501 µM	2.56 µM	> 33.5 µM	< 0.0211 µM	0.782 µM
COc1cccc(-c2nn(-c3ccccc3)cc2-c2ccnc(NCCCNC(=O)c3cccc(C(F)(F)F)c3)c2)c1	6.03 µM	31.2 µM	4.37 µM	17.5 µM	3.32 µM	13.9 µM	3.27 µM	13.1 µM	3.75 µM	15.1 µM	11.3 µM	48.7 µM	4.55 µM	18.3 µM	4.03 µM	18.2 µM	2.48 µM	17.4 µM	3.58 µM	16.2 µM
CCOC(=O)C(=O)Nc1cc(Cl)c(Cl)cc1Cl		> 100 µM		> 100 µM		> 100 µM				> 100 µM		> 100 µM		> 100 µM		> 100 µM		> 100 µM		> 100 µM
COC(=O)CCC(=O)N1C/C(=C\c2ccccc2)C(=O)/C(=C/c2ccccc2)C1		14.5 µM		2.6 µM		5.87 µM				3.75 µM		6.24 µM		1.59 µM		10.8 µM		18.7 µM		3.61 µM
Nc1ncnc2c1ncn2C1OC(COS(N)(=O)=O)C(O)C1O (stereo unspecified)	< 0.001 µM						< 0.001 µM	0.00378 µM	0.00213 µM and 0.0204 µM	0.00465 µM and 0.0433 µM			0.018 µM	0.0382 µM				0.00619 µM and 0.0611 µM		
CCc1cccc(C(C)C)c1NC(=O)CCl		> 100 µM		> 100 µM		> 100 µM		70.8 µM		> 100 µM				> 100 µM				> 100 µM		> 100 µM
Cn1c(=O)nc2n(-c3ccc(Cl)cc3)c(-c3ccccc3)c(-c3ccccc3)nc-2c1=O		> 100 µM		> 100 µM		> 100 µM		58.6 µM		> 100 µM		> 100 µM				62.5 µM		84.5 µM		32.5 µM
Cc1c(Cl)c(=O)oc2cc(OC/C=C3\CCC(=O)O3)ccc12	17.7 µM	51.7 µM	16.8 µM	33.3 µM	62.9 µM	> 100 µM			12.8 µM	29.3 µM	27.8 µM	80 µM	15.6 µM	29.7 µM	26.9 µM	> 100 µM	13 µM	30 µM	16.8 µM	33.9 µM
CCN(CC)c1c(-c2ccccc2)n[nH]c1C(=O)OC	46.4 µM	> 100 µM	25.2 µM	66.4 µM			18.7 µM	48.8 µM	32.7 µM	96.2 µM	31 µM	> 100 µM	35.3 µM	> 100 µM	30.3 µM	> 100 µM	17.8 µM	51.1 µM	15.5 µM	37.7 µM
C/C(=N\NC(=O)C[N+](C)(C)C)c1sc(-c2cccnc2)nc1C				> 100 µM		> 100 µM		> 100 µM		> 100 µM		> 100 µM		> 100 µM		> 100 µM		> 100 µM		> 100 µM
C/C(=N\NC(N)=S)c1ccc(C)c(C)c1				> 100 µM		> 100 µM		75.4 µM		> 100 µM		> 100 µM		> 100 µM		> 100 µM		> 100 µM		> 100 µM
C[C@]12CC[C@@H]3c4ccc(O)cc4CC[C@H]3[C@@H]1CC[C@@H]2NS(=O)(=O)c1ccc(Br)cc1	3.94 µM	16.9 µM	2.89 µM	10.6 µM	1.75 µM	3.29 µM	2.77 µM	8.5 µM	3.07 µM	8.86 µM	2.31 µM	6.03 µM			2.15 µM	4.81 µM	1.76 µM	4.93 µM	1.76 µM	3.68 µM
O=C1C(=C2CCCC2)CCC1CN1CCCCC1 (stereo unspecified)		> 100 µM		> 100 µM		> 100 µM		21.9 µM		26.4 µM		39.8 µM						37.7 µM		34 µM
COc1ccc(/C(C)=N/NC(=O)CSc2nc3ccccc3c(=O)n2CCc2ccc(S(N)(=O)=O)cc2)cc1	2.27 µM	4.78 µM			1.8 µM	3.86 µM	16.6 µM	> 100 µM	1.79 µM	3.44 µM	1.61 µM	3.23 µM			2.03 µM	3.81 µM	1.89 µM	4 µM	2.2 µM	4.93 µM
